{"source": "the supplement of paper PMC10307832", "assay_in_all_cases": "relative viability (nuclei count vs DMSO), 5 days (fraction); higher = more cells survive", "key": {"[1]": {"system": "ChaGo-K-1", "in_short": "(§1)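 After 5 days of treatment, lung cancer cells in 1536-well plates were fixed and stained in a single step (final 0.05% Triton X-100, 1% formaldehyde, 1 ug/ml Hoechst) and their nuclei counted on 4× images. Treatment had been applied by pin tool the day after seeding as one drug alone or as a fixed anchor-drug dose with five library-drug doses (not always all listed) in √10 steps. Relative viability is the nuclei count of treated wells divided by that of vehicle wells, and values are medians of duplicate plates.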"}, "[2]": {"system": "NCI-H2347", "in_short": "as §1"}, "[3]": {"system": "NCI-H650", "in_short": "as §1"}, "[4]": {"system": "EPLC-272H", "in_short": "as §1"}, "[5]": {"system": "RERF-LC-KJ", "in_short": "as §1"}, "[6]": {"system": "HOP-62", "in_short": "as §1"}, "[7]": {"system": "NCI-H1793", "in_short": "as §1"}, "[8]": {"system": "NCI-H1395", "in_short": "as §1"}, "[9]": {"system": "HCC-827", "in_short": "as §1"}, "[10]": {"system": "LOU-NH91", "in_short": "as §1"}, "[11]": {"system": "NCI-H322M", "in_short": "as §1"}, "[12]": {"system": "SW 900", "in_short": "as §1"}, "[13]": {"system": "NCI-H2170", "in_short": "as §1"}, "[14]": {"system": "NCI-H2228", "in_short": "as §1"}, "[15]": {"system": "NCI-H647", "in_short": "as §1"}, "[16]": {"system": "NCI-H358", "in_short": "as §1"}, "[17]": {"system": "NCI-H441", "in_short": "as §1"}, "[18]": {"system": "NCI-H1755", "in_short": "as §1"}, "[19]": {"system": "PC-3 [JPC-3]", "in_short": "as §1"}, "[20]": {"system": "LXF-289", "in_short": "as §1"}, "[21]": {"system": "NCI-H596", "in_short": "as §1"}, "[22]": {"system": "LCLC-103H", "in_short": "as §1"}, "[23]": {"system": "NCI-H23", "in_short": "as §1"}, "[24]": {"system": "NCI-H1651", "in_short": "as §1"}, "[25]": {"system": "NCI-H2126", "in_short": "as §1"}}}
{"molecule": "Nc1cccc2c1CN(C1CCC(=O)NC1=O)C2=O", "note": "(stereo unspecified) [Lenalidomide] + N=C(N)NC(=N)NCCc1ccccc1 [Phenformin] (partner 250 µM)", "values": [{"measurement": "relative viability", "setting": "[1]; first compound 0.253 µM", "value": 0.497}, {"measurement": "relative viability", "setting": "[1]; first compound 0.8 µM", "value": 0.459}, {"measurement": "relative viability", "setting": "[1]; first compound 2.53 µM", "value": 0.636}, {"measurement": "relative viability", "setting": "[1]; first compound 8 µM", "value": 0.478}, {"measurement": "relative viability", "setting": "[2]; first compound 0.253 µM", "value": 0.409}, {"measurement": "relative viability", "setting": "[2]; first compound 0.8 µM", "value": 0.488}, {"measurement": "relative viability", "setting": "[2]; first compound 2.53 µM", "value": 0.497}, {"measurement": "relative viability", "setting": "[2]; first compound 8 µM", "value": 0.206}, {"measurement": "relative viability", "setting": "[3]; first compound 0.253 µM", "value": 0.528}, {"measurement": "relative viability", "setting": "[3]; first compound 2.53 µM", "value": 0.523}, {"measurement": "relative viability", "setting": "[3]; first compound 8 µM", "value": 0.42}, {"measurement": "relative viability", "setting": "[4]; first compound 0.253 µM", "value": 0.282}, {"measurement": "relative viability", "setting": "[4]; first compound 0.8 µM", "value": 0.341}, {"measurement": "relative viability", "setting": "[4]; first compound 2.53 µM", "value": 0.318}, {"measurement": "relative viability", "setting": "[4]; first compound 8 µM", "value": 0.224}, {"measurement": "relative viability", "setting": "[5]; first compound 0.253 µM", "value": 0.403}, {"measurement": "relative viability", "setting": "[5]; first compound 0.8 µM", "value": 0.463}, {"measurement": "relative viability", "setting": "[5]; first compound 2.53 µM", "value": 0.431}, {"measurement": "relative viability", "setting": "[5]; first compound 8 µM", "value": 0.441}, {"measurement": "relative viability", "setting": "[6]; first compound 0.253 µM", "value": 0.611}, {"measurement": "relative viability", "setting": "[6]; first compound 0.8 µM", "value": 0.733}, {"measurement": "relative viability", "setting": "[6]; first compound 2.53 µM", "value": 0.736}, {"measurement": "relative viability", "setting": "[6]; first compound 8 µM", "value": 0.705}, {"measurement": "relative viability", "setting": "[7]; first compound 0.253 µM", "value": 0.384}, {"measurement": "relative viability", "setting": "[7]; first compound 2.53 µM", "value": 0.515}, {"measurement": "relative viability", "setting": "[7]; first compound 8 µM", "value": 0.344}, {"measurement": "relative viability", "setting": "[8]; first compound 0.253 µM", "value": 0.436}, {"measurement": "relative viability", "setting": "[8]; first compound 0.8 µM", "value": 0.403}, {"measurement": "relative viability", "setting": "[8]; first compound 2.53 µM", "value": 0.508}, {"measurement": "relative viability", "setting": "[8]; first compound 8 µM", "value": 0.419}, {"measurement": "relative viability", "setting": "[9]; first compound 0.253 µM", "value": 0.408}, {"measurement": "relative viability", "setting": "[9]; first compound 0.8 µM", "value": 0.425}, {"measurement": "relative viability", "setting": "[9]; first compound 2.53 µM", "value": 0.432}, {"measurement": "relative viability", "setting": "[9]; first compound 8 µM", "value": 0.437}, {"measurement": "relative viability", "setting": "[10]; first compound 0.253 µM", "value": 0.681}, {"measurement": "relative viability", "setting": "[10]; first compound 0.8 µM", "value": 0.584}, {"measurement": "relative viability", "setting": "[10]; first compound 2.53 µM", "value": 0.75}, {"measurement": "relative viability", "setting": "[10]; first compound 8 µM", "value": 0.491}, {"measurement": "relative viability", "setting": "[11]; first compound 0.253 µM", "value": 0.801}, {"measurement": "relative viability", "setting": "[11]; first compound 0.8 µM", "value": 0.894}, {"measurement": "relative viability", "setting": "[11]; first compound 2.53 µM", "value": 0.863}, {"measurement": "relative viability", "setting": "[11]; first compound 8 µM", "value": 0.846}, {"measurement": "relative viability", "setting": "[12]; first compound 0.253 µM", "value": 0.583}, {"measurement": "relative viability", "setting": "[12]; first compound 2.53 µM", "value": 0.747}, {"measurement": "relative viability", "setting": "[12]; first compound 8 µM", "value": 0.688}, {"measurement": "relative viability", "setting": "[13]; first compound 0.253 µM", "value": 0.47}, {"measurement": "relative viability", "setting": "[13]; first compound 0.8 µM", "value": 0.425}, {"measurement": "relative viability", "setting": "[13]; first compound 2.53 µM", "value": 0.414}, {"measurement": "relative viability", "setting": "[13]; first compound 8 µM", "value": 0.481}, {"measurement": "relative viability", "setting": "[14]; first compound 0.253 µM", "value": 0.273}, {"measurement": "relative viability", "setting": "[14]; first compound 0.8 µM", "value": 0.327}, {"measurement": "relative viability", "setting": "[14]; first compound 2.53 µM", "value": 0.27}, {"measurement": "relative viability", "setting": "[14]; first compound 8 µM", "value": 0.264}, {"measurement": "relative viability", "setting": "[15]; first compound 0.253 µM", "value": 0.438}, {"measurement": "relative viability", "setting": "[15]; first compound 0.8 µM", "value": 0.487}, {"measurement": "relative viability", "setting": "[15]; first compound 2.53 µM", "value": 0.703}, {"measurement": "relative viability", "setting": "[15]; first compound 8 µM", "value": 0.581}, {"measurement": "relative viability", "setting": "[16]; first compound 0.253 µM", "value": 0.338}, {"measurement": "relative viability", "setting": "[16]; first compound 0.8 µM", "value": 0.371}, {"measurement": "relative viability", "setting": "[16]; first compound 2.53 µM", "value": 0.405}, {"measurement": "relative viability", "setting": "[16]; first compound 8 µM", "value": 0.359}, {"measurement": "relative viability", "setting": "[17]; first compound 0.253 µM", "value": 0.827}, {"measurement": "relative viability", "setting": "[17]; first compound 0.8 µM", "value": 0.958}, {"measurement": "relative viability", "setting": "[17]; first compound 2.53 µM", "value": 0.949}, {"measurement": "relative viability", "setting": "[17]; first compound 8 µM", "value": 0.613}, {"measurement": "relative viability", "setting": "[18]; first compound 0.253 µM", "value": 0.627}, {"measurement": "relative viability", "setting": "[18]; first compound 0.8 µM", "value": 0.615}, {"measurement": "relative viability", "setting": "[18]; first compound 2.53 µM", "value": 0.682}, {"measurement": "relative viability", "setting": "[18]; first compound 8 µM", "value": 0.536}, {"measurement": "relative viability", "setting": "[19]; first compound 0.253 µM", "value": 0.482}, {"measurement": "relative viability", "setting": "[19]; first compound 0.8 µM", "value": 0.432}, {"measurement": "relative viability", "setting": "[19]; first compound 2.53 µM", "value": 0.502}, {"measurement": "relative viability", "setting": "[19]; first compound 8 µM", "value": 0.511}, {"measurement": "relative viability", "setting": "[20]; first compound 0.253 µM", "value": 0.536}, {"measurement": "relative viability", "setting": "[20]; first compound 0.8 µM", "value": 0.547}, {"measurement": "relative viability", "setting": "[20]; first compound 2.53 µM", "value": 0.565}, {"measurement": "relative viability", "setting": "[20]; first compound 8 µM", "value": 0.58}, {"measurement": "relative viability", "setting": "[21]; first compound 0.253 µM", "value": 0.752}, {"measurement": "relative viability", "setting": "[21]; first compound 2.53 µM", "value": 0.911}, {"measurement": "relative viability", "setting": "[21]; first compound 8 µM", "value": 0.635}, {"measurement": "relative viability", "setting": "[22]; first compound 0.253 µM", "value": 0.364}, {"measurement": "relative viability", "setting": "[22]; first compound 0.8 µM", "value": 0.327}, {"measurement": "relative viability", "setting": "[22]; first compound 2.53 µM", "value": 0.352}, {"measurement": "relative viability", "setting": "[22]; first compound 8 µM", "value": 0.257}, {"measurement": "relative viability", "setting": "[23]; first compound 0.253 µM", "value": 0.733}, {"measurement": "relative viability", "setting": "[23]; first compound 0.8 µM", "value": 0.695}, {"measurement": "relative viability", "setting": "[23]; first compound 2.53 µM", "value": 0.889}, {"measurement": "relative viability", "setting": "[23]; first compound 8 µM", "value": 0.729}, {"measurement": "relative viability", "setting": "[24]; first compound 0.253 µM", "value": 0.301}, {"measurement": "relative viability", "setting": "[24]; first compound 0.8 µM", "value": 0.351}, {"measurement": "relative viability", "setting": "[24]; first compound 2.53 µM", "value": 0.493}, {"measurement": "relative viability", "setting": "[24]; first compound 8 µM", "value": 0.337}, {"measurement": "relative viability", "setting": "[25]; first compound 0.253 µM", "value": 0.552}, {"measurement": "relative viability", "setting": "[25]; first compound 0.8 µM", "value": 0.517}, {"measurement": "relative viability", "setting": "[25]; first compound 2.53 µM", "value": 0.531}, {"measurement": "relative viability", "setting": "[25]; first compound 8 µM", "value": 0.458}]}
